Experimental findings from the OPERA property sets (Mansouri et al. 2018) are described below.

`CC(C)OC(=O)CS(=O)(=O)c1ccc([N+](=O)[O-])cc1` yielded a logP of 1.8.

In turn, `COC(=O)CS(=O)c1ccccc1[N+](=O)[O-]` (configuration not stated) had a logP of 0.74.

`COC(=O)CS(=O)c1ccc(Cl)cc1[N+](=O)[O-]` (configuration not stated) showed a logP of 1.29.

Take `CC(C)OC(=O)CSc1ccc([N+](=O)[O-])cc1`: the logP turned out to be 2.79.

Molecule `CC(C)OC(=O)CS(=O)(=O)c1ccc(Cl)cc1[N+](=O)[O-]` registered a logP of 2.45.

Turning to `COC(=O)CSc1ccccc1[N+](=O)[O-]`, the logP worked out at 1.88.

The molecule `COC(=O)CSc1ccc([N+](=O)[O-])cc1Cl` had a logP of 2.26.

As for `CC(C)OC(=O)CS(=O)(=O)c1ccc([N+](=O)[O-])cc1Cl`, the logP was 2.4.

As for `CC(C)OC(=O)CSc1ccccc1[N+](=O)[O-]`, the logP came to 2.76.

The molecule `CC(C)OC(=O)CS(=O)c1ccc([N+](=O)[O-])cc1` (configuration not stated) returned a logP of 1.64.

With `COC(=O)CSc1ccc([N+](=O)[O-])cc1[N+](=O)[O-]`, the logP was found to be 2.05.

`CC(C)OC(=O)CSc1ccc([N+](=O)[O-])cc1[N+](=O)[O-]` came in with a logP of 2.81.

Molecule `CC(C)OC(=O)CSc1ccc(Cl)cc1[N+](=O)[O-]` gave a logP of 3.

As for `CC(C)OC(=O)CS(=O)c1ccc([N+](=O)[O-])cc1[N+](=O)[O-]` (configuration not stated), the logP worked out at 1.61.

`COC(=O)CSc1ccc(Cl)cc1[N+](=O)[O-]` had a logP of 2.24.

For `COC(=O)CS(=O)c1ccc([N+](=O)[O-])cc1Cl` (configuration not stated), the logP was 1.35.

`COC(=O)CS(=O)c1ccc([N+](=O)[O-])cc1` (configuration not stated): the logP was determined as 0.8.

`COC(=O)CS(=O)(=O)c1ccc(Cl)cc1[N+](=O)[O-]` gave a logP of 1.3.

Regarding `CC(C)OC(=O)CSc1ccc([N+](=O)[O-])cc1Cl`, the logP came out at 3.2.

For `CC(C)OC(=O)CS(=O)c1ccc(Cl)cc1[N+](=O)[O-]` (configuration not stated), the logP turned out to be 2.22.

`CC(C)OC(=O)CS(=O)c1ccccc1[N+](=O)[O-]` (configuration not stated) gave a logP of 1.59.

Consider `COC(=O)CS(=O)(=O)c1ccc([N+](=O)[O-])cc1`, for which the logP is 0.78.

The molecule `COC(=O)CS(=O)(=O)c1ccccc1[N+](=O)[O-]` had a logP of 0.78.

On to `COC(=O)CS(=O)(=O)c1ccc([N+](=O)[O-])cc1Cl`, for which the logP came out at 1.45.

With `COC(=O)CS(=O)c1ccc([N+](=O)[O-])cc1[N+](=O)[O-]` (configuration not stated), the logP stood at 0.63.

For `CC(C)OC(=O)CS(=O)(=O)c1ccccc1[N+](=O)[O-]`, the logP was determined as 1.72.

`CC(C)OC(=O)CS(=O)c1ccc([N+](=O)[O-])cc1Cl` (configuration not stated) yielded a logP of 2.01.
